Data as given in the NIST ThermoML archive (doi:10.1016/j.jct.2016.07.012).
Numbers after ± are expanded uncertainties.

Details: Crystal; Adiabatic calorimetry

CCCCn1cc[n+](C)c1.F[P-](F)(F)(F)(F)F [1-butyl-3-methylimidazolium hexafluorophosphate]
Triple point temperature: 283.55 ± 0.05 K
